Experimental data from publication PMC11954145, “Antimicrobial and ADME properties of methoxylated, methylated and nitrated 2-hydroxynaphthalene-1 carboxanilides” (ADMET & DMPK, 2025).
Converted amounts (≈) assume the structure as drawn. “And” between values parts separate entries of the source, which are not always exact repeats. Equal entries are not always repeated. Where two headings read alike, the source gives them in different places.

Key:
Cytotoxicity assay (LDH) = conditions: human
Experimental: Cytotoxicity of the compounds was determined using an LDH assay kit (Roche Diagnostics, Mannheim, Germany) as described previously. Human monocytic leukemia THP-1 cells (European Collection of Cell Cultures, Salisbury, UK) were exposed for 24 h at 37 °C to various compound concentrations ranging from 0.37 to 30 μM in RPMI 1640 medium. For LDH assays, cells were seeded into 96-well plates (5×10^4 cells/well in 100 μL culture medium) in triplicate in serum-free RPMI 1640 medium and measurements were taken 24 h after the treatment with the compounds. The maximum concentration of DMSO (Sigma) in the assays never exceeded 0.1 %. […] The median lethal dose values, LC50, were deduced through the production of a dose-response curve. All data from three independent experiments were evaluated using GraphPad Prism 5.00 software (GraphPadSoftware, San Diego, CA, USA).

MRSA 63718 = assay: Antibacterial screening, broth microdilution MIC; assay type: cell-based, methicillin-resistant S. aureus; conditions: Staphylococcus aureus, clinical isolate, 24 h at 37 °C, read-out: MIC MRSA 63718
[1] = Lipophilicity determination by RP-HPLC (log k, log D); assay type: physicochemical; conditions: for log D6.5: RP-HPLC C18, MeOH 72 % / acetate-buffered saline pH 6.5; for log D7.4: RP-HPLC C18, MeOH 72 % / acetate-buffered saline pH 7.4; for log k (logarithm of the capacity factor): RP-HPLC C18, MeOH 72 % / water 28 %
Text: An HPLC system Agilent 1200 equipped with a DAD detector (Agilent, Santa Clara, CA, USA) was used. A chromatographic column Symmetry® C18 5 μm, 4.6×250 mm, part No. WAT054275 (Waters Corp., Milford, MA, USA) was used. The HPLC separation process was monitored and evaluated with EZChrom Elite software ver. 3.3.2 (Agilent). Isocratic elution by a mixture of MeOH p.a. (72 %) and H2O-HPLC Mili-Q grade (28 %) as a mobile phase was used for the determination of capacity factor k. Isocratic elution by a mixture of MeOH p.a. (72 %) and acetate-buffered saline (pH 7.4 and pH 6.5) (28 %) as a mobile phase was used for the determination of distribution coefficients expressed as D7.4 and D6.5. The total flow of the column was 1.0 mL min^-1, the injection volume was 20 μL, the column temperature was 40 °C, and the sample temperature was 10 °C. The detection wavelength of 210 nm was chosen. A KI methanolic solution was used to determine the dead times (tD). Retention times (tR) were measured in minutes. The capacity factors k were calculated according to the formula k = (tR–tD)/tD, where tR is the retention time of the solute, and tD is the dead time obtained using an unretained analyte. The distribution coefficients DpH were calculated according to the formula DpH = (tR–tD)/tD. Each experiment was repeated three times.
The capacity factor and distribution coefficients were measured by RP-HPLC on a C18 column with methanol as an organic modifier of the mobile phase. In addition to the experimental lipophilicities, predicted log P values were also calculated using ACD/Percepta, see Table 1. […] The values of σ(Ar) are found in a wide range from 0.01 to 1.36, so the compounds contain substituents with both electron-donating and slightly electron-withdrawing properties.

MRSA SA 630 = assay: Antibacterial screening, broth microdilution MIC; assay type: cell-based, methicillin-resistant S. aureus; conditions: Staphylococcus aureus, clinical isolate, 24 h at 37 °C, read-out: MIC MRSA SA 630
[2] = tested on: Mycobacterium kansasii DSM 44162; assay: Antimycobacterial screening, broth dilution MIC; assay type: cell-based; conditions: DSM44162, 336 h, read-out: MIC M. kansasii
E. coli ATCC 25922 = assay: Antibacterial screening, broth microdilution MIC; assay type: cell-based; conditions: Escherichia coli, ATCC25922; ATCC 25922, 24 h at 37 °C
VRE 368 = assay: Antibacterial screening, broth microdilution MIC; assay type: cell-based, vancomycin-resistant E. faecalis; conditions: Enterococcus, vanA isolate, 24 h at 37 °C, read-out: MIC VRE 368
MRSA SA 3202 = assay: Antibacterial screening, broth microdilution MIC; assay type: cell-based, methicillin-resistant S. aureus; conditions: Staphylococcus aureus, clinical isolate, 24 h at 37 °C, read-out: MIC MRSA SA 3202
VRE 342B = assay: Antibacterial screening, broth microdilution MIC; assay type: cell-based, vancomycin-resistant E. faecalis; conditions: Enterococcus, vanA isolate, 24 h at 37 °C, read-out: MIC VRE 342B
[3] = tested on: Mycobacterium smegmatis ATCC 700084; assay: Antimycobacterial screening, broth dilution MIC; assay type: cell-based; conditions: Mycolicibacterium smegmatis, ATCC700084, 72 h, read-out: MIC M. smegmatis
S. aureus ATCC 29213 = assay: Antibacterial screening, broth microdilution MIC; assay type: cell-based; conditions: Staphylococcus aureus, ATCC29213; ATCC 29213, 24 h at 37 °C; read-out: MIC S. aureus
[4] = tested on: Mycobacterium tuberculosis ATCC 25177/H37Ra; assay: Antimycobacterial screening, broth dilution MIC (Alamar blue); assay type: cell-based; conditions: 336 h, H37Ra, 14 days at 37 °C, Alamar blue, read-out: MIC M. tuberculosis
Experimental: The evaluation of in vitro antimycobacterial activity of the compounds was performed against Mycobacterium tuberculosis ATCC 25177/H37Ra, Mycobacterium kansasii DSM 44162 and Mycobacterium smegmatis ATCC 700084.
The broth dilution micro-method in Middlebrook 7H9 medium (Difco, Lawrence, KS, USA) supplemented with ADC Enrichment (Difco) was used to determine the minimum inhibitory concentration (MIC) as previously described. […] The final concentrations of the evaluated compounds, ranging from 256 to 0.125 μg mL^-1, were obtained by twofold serial dilution of the stock solution in a microtiter plate with a sterile medium. Bacterial inocula were prepared by transferring colonies from culture to sterile water. The plate was inoculated by tested microorganisms. The final concentration of bacterial cells was 1.5×10^6 for M. tuberculosis and 10^5 cells in a microtiter plate for other mycobacteria. Isoniazid and rifampicin (Sigma) were used as reference antimycobacterial drugs. Drug-free controls, sterility controls, and controls consisting of medium and DMSO alone were included. The plates were incubated for a defined time at an appropriate temperature (3 days at 37 °C for M. smegmatis, and 14 days at 37 °C for M. tuberculosis and M. kansasii). […] The MICs against M. tuberculosis were evaluated by Alamar blue (Oxoid). After incubation, 10 % of Alamar blue was added to each well, and the plate was incubated for 24 h. The MIC values were assessed as the lowest concentration of the tested compounds, which prevented changing blue resazurin to pink resorufin. The experiments were repeated three times. The minimum inhibitory concentrations (MICs) were defined as the lowest concentration of the compound at which no visible bacterial growth was observed. The MIC value is routinely and widely used in bacterial assays and is a standard detection limit according to the CLSI [60].

VRE 725B = assay: Antibacterial screening, broth microdilution MIC; assay type: cell-based, vancomycin-resistant E. faecalis; conditions: Enterococcus, vanA isolate, 24 h at 37 °C, read-out: MIC VRE 725B
[5] = tested on: Enterococcus faecalis ATCC 29212; assay: Antibacterial screening, broth microdilution MIC; assay type: cell-based; conditions: read-out: MIC E. faecalis
[6] = ATCC29212, ATCC 29212, 24 h at 37 °C

Row | SMILES | CC50 at 24 h (Cytotoxicity assay (LDH)) [nM] | MIC (MRSA 63718) [µM] | log D6.5 [1] | log D7.4 [1] | log k (logarithm of the capacity factor) [1] | MIC (MRSA SA 630) [µM] | MIC ([2]; DSM 44162, 14 days at 37 °C) [µM] | MIC (E. coli ATCC 25922) [µM] | MIC (VRE 368) [µM] | MIC (MRSA SA 3202) [µM] | MIC (VRE 342B) [µM] | MIC ([3]; ATCC 700084, 3 days at 37 °C) [µM] | MIC (S. aureus ATCC 29213) [µM] | MIC [4] [µM] | MIC (VRE 725B) [µM] | MIC [5, 6] [µM] | MIC [2] [µM] | MIC [3] [µM] | MIC ([5]; ATCC29212, 24 h) [µM]
1 | CC[C@@]1(O)C(=O)OCc2c1cc1n(c2=O)Cc2cc3ccccc3nc2-1 [CMP, camptothecin, reference compound] | 160 ± 70 |  |  |  |  |  |  |  |  |  |  |  |  |  |  |  |  |  | 
2 | Cc1cc(C)c(NC(=O)c2c(O)ccc3ccccc23)c(C)c1 [Compound 14, 2-Hydroxy-N-(2,4,6-trimethylphenyl)naphthalene-1-carboxamide] |  | 838 (≈ 256 µg/mL) | 0.2629 | 0.2691 | 0.2539 | 838 (≈ 256 µg/mL) | 838 (≈ 256 µg/mL) | 838 (≈ 256 µg/mL) | 838 (≈ 256 µg/mL) | 419 (≈ 128 µg/mL) | 838 (≈ 256 µg/mL) | 210 (≈ 64.1 µg/mL) | 838 (≈ 256 µg/mL) | 210 (≈ 64.1 µg/mL) | 838 (≈ 256 µg/mL) | 838 (≈ 256 µg/mL) |  |  | 
3 | COc1cccc(C)c1NC(=O)c1c(O)ccc2ccccc12 [Compound 16, 2-Hydroxy-N-(2-methoxy-6-methylphenyl)naphthalene-1-carboxamide] |  | 833 (≈ 256 µg/mL) | 0.0284 | 0.0382 | 0.0124 | 833 (≈ 256 µg/mL) |  | 833 (≈ 256 µg/mL) | 208 (≈ 63.9 µg/mL) | 833 (≈ 256 µg/mL) | 208 (≈ 63.9 µg/mL) |  | 833 (≈ 256 µg/mL) | 416 (≈ 128 µg/mL) | 833 (≈ 256 µg/mL) |  | 833 (≈ 256 µg/mL) | 416 (≈ 128 µg/mL) | 416 (≈ 128 µg/mL)
4 | COc1ccc(NC(=O)c2c(O)ccc3ccccc23)cc1C(F)(F)F [Compound 21, 2-Hydroxy-N-[4-methoxy-3-(trifluoromethyl)phenyl]naphthalene-1-carboxamide] |  | 177 (≈ 64 µg/mL) | 0.1704 | 0.1745 | 0.16 and 0.1635 | 88.6 (≈ 32 µg/mL) | 709 (≈ 256 µg/mL) | 709 (≈ 256 µg/mL) | 88.6 (≈ 32 µg/mL) | 88.6 (≈ 32 µg/mL) | 177 (≈ 64 µg/mL) | 177 (≈ 64 µg/mL) | 88.6 (≈ 32 µg/mL) | 354 (≈ 128 µg/mL) | 88.6 (≈ 32 µg/mL) | 88.6 (≈ 32 µg/mL) |  |  | 
5 | COc1ccc(Br)cc1NC(=O)c1c(O)ccc2ccccc12 [Compound 19, N-(5-Bromo-2-methoxyphenyl)-2-hydroxynaphthalene-1-carboxamide] |  | 688 (≈ 256 µg/mL) | 0.5836 | 0.5835 | 0.5845 | 688 (≈ 256 µg/mL) | 688 (≈ 256 µg/mL) | 688 (≈ 256 µg/mL) | 688 (≈ 256 µg/mL) | 688 (≈ 256 µg/mL) | 688 (≈ 256 µg/mL) | 688 (≈ 256 µg/mL) | 688 (≈ 256 µg/mL) | 344 (≈ 128 µg/mL) | 688 (≈ 256 µg/mL) | 688 (≈ 256 µg/mL) |  |  | 
6 | COc1ccc(C)cc1NC(=O)c1c(O)ccc2ccccc12 [Compound 15, 2-Hydroxy-N-(2-methoxy-5-methylphenyl)naphthalene-1-carboxamide] |  | 833 (≈ 256 µg/mL) | 0.4974 | 0.5012 | 0.4932 | 833 (≈ 256 µg/mL) |  | 833 (≈ 256 µg/mL) | 833 (≈ 256 µg/mL) | 833 (≈ 256 µg/mL) | 833 (≈ 256 µg/mL) | 833 (≈ 256 µg/mL) | 833 (≈ 256 µg/mL) | 416 (≈ 128 µg/mL) | 833 (≈ 256 µg/mL) | 833 (≈ 256 µg/mL) | 833 (≈ 256 µg/mL) |  | 
7 | Cc1ccc(C)c(NC(=O)c2c(O)ccc3ccccc23)c1 [Compound 11, N-(2,5-Dimethylphenyl)-2-hydroxynaphthalene-1-carboxamide] |  | 110 (≈ 32 µg/mL) | 0.2455 | 0.2514 | 0.2486 | 110 (≈ 32 µg/mL) | 110 (≈ 32 µg/mL) | 879 (≈ 256 µg/mL) | 879 (≈ 256 µg/mL) | 110 (≈ 32 µg/mL) | 879 (≈ 256 µg/mL) | 220 (≈ 64.1 µg/mL) | 110 (≈ 32 µg/mL) | 439 (≈ 128 µg/mL) | 879 (≈ 256 µg/mL) | 879 (≈ 256 µg/mL) |  |  | 
